We go through two molecules from BindingDB's records for doi:10.1016/j.bmcl.2007.04.096 (University of Michigan, 2007).

The structures appear in SMILES notation. Where a SMILES comes first, the peptide text is derived from it. Bridges are numbered along the chain shown (N, C = ends). Triazole bridges read from a SMILES are 1,4-linked. [ ]: non-standard residue; d: D form. ξ: configuration not given here. pY = N[C@@H](Cc1ccc(OP(=O)(O)O)cc1)C(=O)O; Lys(N3) = [N-]=[N+]=NCCCC[C@H](N)C(=O)O; Thr(3ξ) = CC(O)[C@H](N)C(=O)O; Pra = C#CC[C@H](N)C(=O)O

The experiment concerns the target T1, Signal transducer and activator of transcription 3 [127-722] (Mus musculus, UniProt P42227).
T1 construct: 127-722
Description: Fluorescence-Polarization-Based Binding Assay. The settings on record: pH 7.5; 22 °C. From the text: Fluorescence polarization (FP) binding assay is utilizing the intrinsic property of the fluorescent probe, which will have low polarization value when free in solution. On binding to a target, the polarization of the probe will increase.

T1 sequence (P42227 127-722): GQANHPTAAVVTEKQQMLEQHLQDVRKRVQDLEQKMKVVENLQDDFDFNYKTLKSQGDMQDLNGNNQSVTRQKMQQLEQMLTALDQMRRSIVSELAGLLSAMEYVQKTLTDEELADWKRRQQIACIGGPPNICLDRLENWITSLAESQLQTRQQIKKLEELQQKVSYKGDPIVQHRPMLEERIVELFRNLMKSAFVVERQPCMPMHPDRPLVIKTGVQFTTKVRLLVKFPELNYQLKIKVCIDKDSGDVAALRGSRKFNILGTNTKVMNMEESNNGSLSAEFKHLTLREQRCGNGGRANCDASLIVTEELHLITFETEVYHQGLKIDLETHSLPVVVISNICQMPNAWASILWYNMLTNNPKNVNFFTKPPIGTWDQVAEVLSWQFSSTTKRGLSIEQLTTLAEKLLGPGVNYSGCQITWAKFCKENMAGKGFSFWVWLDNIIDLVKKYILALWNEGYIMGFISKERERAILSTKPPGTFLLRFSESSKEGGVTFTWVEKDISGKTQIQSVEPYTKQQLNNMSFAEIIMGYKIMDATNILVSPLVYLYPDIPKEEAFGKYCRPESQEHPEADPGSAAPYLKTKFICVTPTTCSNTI

Regarding `CC(=O)N[C@@H](Cc1ccc(OP(=O)(O)O)cc1)C(=O)N[C@@H](CC(C)C)C(=O)N[C@@H](CCCCN)C(=O)N[C@H](C(=O)N[C@@H](CCCCN)C(=O)N[C@@H](Cc1ccccc1)C(N)=O)C(C)O` (stereo partly drawn) [4-[(2S)-2-{[(1S)-1-{[(1S)-5-amino-1-{[(1S,2R)-1-{[(1S)-5-amino-1-{[(1S)-1-carbamoyl-2-phenylethyl]carbamoyl}pentyl]carbamoyl}-2-hydroxypropyl]carbamoyl}pentyl]carbamoyl}-3-methylbutyl]carbamoyl}-2-acetamidoethyl]phenoxyphosphonic acid] (HELM PEPTIDE1{[ac].[O=C([C@H](Cc1ccc(OP(=O)(O)O)cc1)N[*:1])[*:2]].L.K.[CC(O)[C@H](N[*:1])C(=O)[*:2]].K.F.[am]}$$$$V2.0), the inhibition constant Ki is 25.9 µM.

In turn, `CC(=O)N[C@@H](Cc1ccc(OP(=O)(O)O)cc1)C(=O)N[C@@H](CC(C)C)C(=O)N[C@H]1CCCCn2cc(nn2)C[C@@H](C(=O)N[C@@H](Cc2ccccc2)C(N)=O)NC(=O)[C@H](C(C)O)NC1=O` (stereo partly drawn) [4-[(2S)-2-{[(1S)-1-{[(6S,9S,12S)-12-{[(1S)-1-carbamoyl-2-phenylethyl]carbamoyl}-9-[(1R)-1-hydroxyethyl]-7,10-dioxo-1,8,11,15,16-pentaazabicyclo[12.2.1]heptadeca-14(17),15-dien-6-yl]carbamoyl}-3-methylbutyl]carbamoyl}-2-acetamidoethyl]phenoxyphosphonic acid] (Ac-[pY]L[Lys(N3)][Thr(3ξ)][Pra]F-NH2; triazole 3-5) had a Ki of 7.3 µM. Compared with the last molecule, the Ki is about 3.5-fold lower.
